# From patent US12673945B2, “3-((8-((1H-pyrazol-4-yl)amino)imidazo[1,2-a]pyridin-3-yl)ethinyl)-n-phenylbenzamide derivative, method for preparing same, and pharmaceutical composition containing same as active ingredient for prevention or treatment of cancer” (DAEGU-GYEONGBUK MEDICAL INNOVATION FOUNDATION, priority 2020, dated 2026)
# Experiments:
# Format in all cases: cell-based
# T315I-TCCS cells = experiment: human CML cell proliferation inhibition; settings: 72 hours, Cell Counting Kit-8
# Procedure, shortened: (§1)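 Growth inhibition over 72 h at 37 °C in Bcr-Abl (TCCS, KOPM28) or T315I-Bcr-Abl (T315I-TCCS, T315I-KOPM28) human CML cells, 1×10^4 cells/well. Nine 5-fold dilutions gave final 0 to 10 μM, with DMSO as control. GI50 was derived from CCK-8 A450 as percent of vehicle.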
# KOPM28 cells = experiment: human CML cell proliferation inhibition; settings: 72 hours, Cell Counting Kit-8
# Procedure, shortened: as §1
# TCCS cells = experiment: human CML cell proliferation inhibition; settings: 72 hours, Cell Counting Kit-8
# Procedure, shortened: as §1
# T315I-KOPM28 cells = experiment: human CML cell proliferation inhibition; settings: 72 hours, Cell Counting Kit-8
# Procedure, shortened: as §1
# Parental (Ba/F3) = experiment: Ba/F3 cell proliferation inhibition; settings: BaF3; 72 hours, Cell Counting Kit-8
# Procedure, shortened: (§2)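 Parental and T315I-Bcr-Abl Ba/F3 cells, 1×10^4 per well, exposed 72 h at 37 °C to nine 3-fold dilutions, final 0 to 10 μM. Viability by CCK-8 after 2 h, absorbance 450 nm; GI50 fitted from percent of vehicle-treated cells.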
# T315I-Bcr-Abl (Ba/F3) = experiment: Ba/F3 cell proliferation inhibition; settings: BaF3; 72 hours, Cell Counting Kit-8
# Procedure, shortened: as §2
smiles,measurement,setting,value
"Cc1cc(F)c(C(=O)Nc2ccc(CN3CCN(C)C(=O)C3)c(C(C)(C)C#N)c2)cc1C#Cc1cnc2c(Nc3cn[nH]c3)cccn12 [Example 93, 5-((8-((1H-pyrazol-4-yl)amino)imidazo[1,2-a]pyridin-3-yl)ethynyl)-N-(3-(2-cyanopropan-2-yl)-4-((4-methyl-3-oxopiperazin-1-yl)methyl)phenyl)-2-fluoro-4-methylbenzamide]",GI50,T315I-TCCS cells,> 100 nM
same,GI50,KOPM28 cells,< 10 nM
same,GI50,TCCS cells,< 10 nM
same,GI50,T315I-KOPM28 cells,> 100 nM
same,GI50,Parental (Ba/F3),0.5 to 5 µM
same,GI50,T315I-Bcr-Abl (Ba/F3),50 to 500 nM
"Cc1cc(F)c(C(=O)Nc2ccc(CN3CCN(S(C)(=O)=O)CC3)c(C(C)(C)C#N)c2)cc1C#Cc1cnc2c(Nc3cn[nH]c3)cccn12 [Example 94, 5-((8-((1H-pyrazol-4-yl)amino)imidazo[1,2-a]pyridin-3-yl)ethynyl)-N-(3-(2-cyanopropan-2-yl)-4-((4-(methylsulfonyl)piperazin-1-yl)methyl)phenyl)-2-fluoro-4-methylbenzamide]",GI50,T315I-TCCS cells,> 100 nM
same,GI50,KOPM28 cells,< 10 nM
same,GI50,TCCS cells,< 10 nM
same,GI50,T315I-KOPM28 cells,> 100 nM
same,GI50,Parental (Ba/F3),> 5 µM
same,GI50,T315I-Bcr-Abl (Ba/F3),500 to 5000 nM
"Cc1cn(-c2cc(NC(=O)c3cc(C#Cc4cnc5c(Nc6cn[nH]c6)cccn45)c(C)cc3F)cc(C(F)(F)F)c2)cn1 [Example 95, 5-((8-((1H-pyrazol-4-yl)amino)imidazo[1,2-a]pyridin-3-yl)ethynyl)-2-fluoro-4-methyl-N-(3-(4-methyl-1H-imidazol-1-yl)-5-(trifluoromethyl)phenyl)benzamide]",GI50,T315I-TCCS cells,100 nM
same,GI50,KOPM28 cells,< 10 nM
same,GI50,TCCS cells,< 10 nM
same,GI50,T315I-KOPM28 cells,100 nM
same,GI50,Parental (Ba/F3),> 5 µM
same,GI50,T315I-Bcr-Abl (Ba/F3),< 50 nM
"Cc1cc(F)c(C(=O)Nc2cc(-c3cnn(C)c3)cc(C(F)(F)F)c2)cc1C#Cc1cnc2c(Nc3cn[nH]c3)cccn12 [Example 96, 5-((8-((1H-pyrazol-4-yl)amino)imidazo[1,2-a]pyridin-3-yl)ethynyl)-2-fluoro-4-methyl-N-(3-(1-methyl-1H-pyrazol-4-yl)-5-(trifluoromethyl)phenyl)benzamide]",GI50,T315I-TCCS cells,> 100 nM
same,GI50,KOPM28 cells,< 10 nM
same,GI50,TCCS cells,100 nM
same,GI50,T315I-KOPM28 cells,> 100 nM
same,GI50,Parental (Ba/F3),> 5 µM
same,GI50,T315I-Bcr-Abl (Ba/F3),50 to 500 nM
"Cc1cc(F)c(C(=O)Nc2cc(-c3ccncc3)cc(C(F)(F)F)c2)cc1C#Cc1cnc2c(Nc3cn[nH]c3)cccn12 [Example 97, 5-((8-((1H-pyrazol-4-yl)amino)imidazo[1,2-a]pyridin-3-yl)ethynyl)-2-fluoro-4-methyl-N-(3-(pyridin-4-yl)-5-(trifluoromethyl)phenyl)benzamide]",GI50,T315I-TCCS cells,100 nM
same,GI50,KOPM28 cells,< 10 nM
same,GI50,TCCS cells,< 10 nM
same,GI50,T315I-KOPM28 cells,> 100 nM
same,GI50,Parental (Ba/F3),> 5 µM
same,GI50,T315I-Bcr-Abl (Ba/F3),50 to 500 nM
"Cc1cc(F)c(C(=O)Nc2cc(-c3cccnc3)cc(C(F)(F)F)c2)cc1C#Cc1cnc2c(Nc3cn[nH]c3)cccn12 [Example 98, 5-((8-((1H-pyrazol-4-yl)amino)imidazo[1,2-a]pyridin-3-yl)ethynyl)-2-fluoro-4-methyl-N-(3-(pyridin-3-yl)-5-(trifluoromethyl)phenyl)benzamide]",GI50,T315I-TCCS cells,100 nM
same,GI50,KOPM28 cells,< 10 nM
same,GI50,TCCS cells,< 10 nM
same,GI50,T315I-KOPM28 cells,> 100 nM
same,GI50,Parental (Ba/F3),> 5 µM
same,GI50,T315I-Bcr-Abl (Ba/F3),50 to 500 nM
"Cc1cc(F)c(C(=O)Nc2cc(N3CCN(C)CC3)cc(C(F)(F)F)c2)cc1C#Cc1cnc2c(Nc3cn[nH]c3)cccn12 [Example 99, 5-((8-((1H-pyrazol-4-yl)amino)imidazo[1,2-a]pyridin-3-yl)ethynyl)-2-fluoro-4-methyl-N-(3-(4-methylpiperazin-1-yl)-5-(trifluoromethyl)phenyl)benzamide]",GI50,T315I-TCCS cells,100 nM
same,GI50,KOPM28 cells,< 10 nM
same,GI50,TCCS cells,< 10 nM
same,GI50,T315I-KOPM28 cells,> 100 nM
same,GI50,Parental (Ba/F3),0.5 to 5 µM
same,GI50,T315I-Bcr-Abl (Ba/F3),50 to 500 nM
"Cc1cc(F)c(C(=O)Nc2cc(N3CCN(C)C(=O)C3)cc(C(F)(F)F)c2)cc1C#Cc1cnc2c(Nc3cn[nH]c3)cccn12 [Example 100, 5-((8-((1H-pyrazol-4-yl)amino)imidazo[1,2-a]pyridin-3-yl)ethynyl)-2-fluoro-4-methyl-N-(3-(4-methyl-3-oxopiperazin-1-yl)-5-(trifluoromethyl)phenyl)benzamide]",GI50,T315I-TCCS cells,100 nM
same,GI50,KOPM28 cells,< 10 nM
same,GI50,TCCS cells,< 10 nM
same,GI50,T315I-KOPM28 cells,> 100 nM
same,GI50,Parental (Ba/F3),> 5 µM
same,GI50,T315I-Bcr-Abl (Ba/F3),50 to 500 nM
"Cc1cc(F)c(C(=O)Nc2cc(Oc3ccncc3)cc(C(F)(F)F)c2)cc1C#Cc1cnc2c(Nc3cn[nH]c3)cccn12 [Example 101, 5-((8-((1H-pyrazol-4-yl)amino)imidazo[1,2-a]pyridin-3-yl)ethynyl)-2-fluoro-4-methyl-N-(3-(pyridin-4-yloxy)-5-(trifluoromethyl)phenyl)benzamide]",GI50,T315I-TCCS cells,< 10 nM
same,GI50,KOPM28 cells,< 10 nM
same,GI50,TCCS cells,< 10 nM
same,GI50,T315I-KOPM28 cells,100 nM
same,GI50,Parental (Ba/F3),> 5 µM
same,GI50,T315I-Bcr-Abl (Ba/F3),< 50 nM
"Cc1cc(F)c(C(=O)Nc2cc(OCCN(C)C)cc(C(F)(F)F)c2)cc1C#Cc1cnc2c(Nc3cn[nH]c3)cccn12 [Example 102, 5-((8-((1H-pyrazol-4-yl)amino)imidazo[1,2-a]pyridin-3-yl)ethynyl)-N-(3-(2-(dimethylamino)ethoxy)-5-(trifluoromethyl)phenyl)-2-fluoro-4-methylbenzamide]",GI50,T315I-TCCS cells,100 nM
same,GI50,KOPM28 cells,< 10 nM
same,GI50,TCCS cells,< 10 nM
same,GI50,T315I-KOPM28 cells,> 100 nM
same,GI50,Parental (Ba/F3),0.5 to 5 µM
same,GI50,T315I-Bcr-Abl (Ba/F3),50 to 500 nM
"Cc1cc(F)c(C(=O)Nc2cc(OCCCN(C)C)cc(C(F)(F)F)c2)cc1C#Cc1cnc2c(Nc3cn[nH]c3)cccn12 [Example 103, 5-((8-((1H-pyrazol-4-yl)amino)imidazo[1,2-a]pyridin-3-yl)ethynyl)-N-(3-(3-(dimethylamino)propoxy)-5-(trifluoromethyl)phenyl)-2-fluoro-4-methylbenzamide]",GI50,T315I-TCCS cells,100 nM
same,GI50,KOPM28 cells,< 10 nM
same,GI50,TCCS cells,< 10 nM
same,GI50,T315I-KOPM28 cells,> 100 nM
same,GI50,Parental (Ba/F3),> 5 µM
same,GI50,T315I-Bcr-Abl (Ba/F3),50 to 500 nM
"Cc1cc(F)c(C(=O)Nc2cc(CN3CCN(C)CC3)cc(C(F)(F)F)c2)cc1C#Cc1cnc2c(Nc3cn[nH]c3)cccn12 [Example 104, 5-((8-((1H-pyrazol-4-yl)amino)imidazo[1,2-a]pyridin-3-yl)ethynyl)-2-fluoro-4-methyl-N-(3-((4-methylpiperazin-1-yl)methyl)-5-(trifluoromethyl)phenyl)benzamide]",GI50,T315I-TCCS cells,100 nM
same,GI50,KOPM28 cells,< 10 nM
same,GI50,TCCS cells,< 10 nM
same,GI50,T315I-KOPM28 cells,> 100 nM
same,GI50,Parental (Ba/F3),0.5 to 5 µM
same,GI50,T315I-Bcr-Abl (Ba/F3),50 to 500 nM
"Cc1cc(F)c(C(=O)Nc2cc(CN3CCC(N(C)C)C3)cc(C(F)(F)F)c2)cc1C#Cc1cnc2c(Nc3cn[nH]c3)cccn12 (stereo not drawn) [Example 105, 5-((8-((1H-pyrazol-4-yl)amino)imidazo[1,2-a]pyridin-3-yl)ethynyl)-N-(3-((3-(dimethylamino)pyrrolidin-1-yl)methyl)-5-(trifluoromethyl)phenyl)-2-fluoro-4-methylbenzamide]",GI50,T315I-TCCS cells,< 10 nM
same,GI50,KOPM28 cells,< 10 nM
same,GI50,TCCS cells,< 10 nM
same,GI50,T315I-KOPM28 cells,100 nM
same,GI50,Parental (Ba/F3),0.5 to 5 µM
same,GI50,T315I-Bcr-Abl (Ba/F3),< 50 nM
"Cc1cc(F)c(C(=O)Nc2cc(CN3CCN(CCO)CC3)cc(C(F)(F)F)c2)cc1C#Cc1cnc2c(Nc3cn[nH]c3)cccn12 [Example 106, 5-((8-((1H-pyrazol-4-yl)amino)imidazo[1,2-a]pyridin-3-yl)ethynyl)-2-fluoro-N-(3-((4-(2-hydroxyethyl)piperazin-1-yl)methyl)-5-(trifluoromethyl)phenyl)-4-methylbenzamide]",GI50,T315I-TCCS cells,100 nM
same,GI50,KOPM28 cells,< 10 nM
same,GI50,TCCS cells,< 10 nM
same,GI50,T315I-KOPM28 cells,> 100 nM
same,GI50,Parental (Ba/F3),> 5 µM
same,GI50,T315I-Bcr-Abl (Ba/F3),50 to 500 nM
"Cc1cc(F)c(C(=O)Nc2cc(CN3CCN(C)C(=O)C3)cc(C(F)(F)F)c2)cc1C#Cc1cnc2c(Nc3cn[nH]c3)cccn12 [Example 107, 5-((8-((1H-pyrazol-4-yl)amino)imidazo[1,2-a]pyridin-3-yl)ethynyl)-2-fluoro-4-methyl-N-(3-((4-methyl-3-oxopiperazin-1-yl)methyl)-5-(trifluoromethyl)phenyl)benzamide]",GI50,T315I-TCCS cells,100 nM
same,GI50,KOPM28 cells,< 10 nM
same,GI50,TCCS cells,< 10 nM
same,GI50,T315I-KOPM28 cells,> 100 nM
same,GI50,Parental (Ba/F3),0.5 to 5 µM
same,GI50,T315I-Bcr-Abl (Ba/F3),50 to 500 nM
"Cc1cc(F)c(C(=O)Nc2cc(Cn3cncn3)cc(C(F)(F)F)c2)cc1C#Cc1cnc2c(Nc3cn[nH]c3)cccn12 [Example 108, N-(3-((1H-1,2,4-triazol-1-yl)methyl)-5-(trifluoromethyl)phenyl)-5-((8-((1H-pyrazol-4-yl)amino)imidazo[1,2-a]pyridin-3-yl)ethynyl)-2-fluoro-4-methylbenzamide]",GI50,T315I-TCCS cells,100 nM
same,GI50,KOPM28 cells,< 10 nM
same,GI50,TCCS cells,< 10 nM
same,GI50,T315I-KOPM28 cells,> 100 nM
same,GI50,Parental (Ba/F3),> 5 µM
same,GI50,T315I-Bcr-Abl (Ba/F3),50 to 500 nM
"Cc1cc(F)c(C(=O)Nc2ccc(CN3CCN(C)CC3)c(C(F)(F)F)c2)cc1C#Cc1cnc2c(Nc3cn[nH]c3)cccn12 [Example 109, 5-((8-((1H-pyrazol-4-yl)amino)imidazo[1,2-a]pyridin-3-yl)ethynyl)-2-fluoro-4-methyl-N-(4-((4-methylpiperazin-1-yl)methyl)-3-(trifluoromethyl)phenyl)benzamide]",GI50,T315I-TCCS cells,< 10 nM
same,GI50,KOPM28 cells,< 10 nM
same,GI50,TCCS cells,< 10 nM
same,GI50,T315I-KOPM28 cells,< 10 nM
same,GI50,Parental (Ba/F3),0.5 to 5 µM
same,GI50,T315I-Bcr-Abl (Ba/F3),< 50 nM
"Cc1cc(F)c(C(=O)Nc2ccc(CN3CCC(N(C)C)C3)c(C(F)(F)F)c2)cc1C#Cc1cnc2c(Nc3cn[nH]c3)cccn12 (stereo not drawn) [Example 110, 5-((8-((1H-pyrazol-4-yl)amino)imidazo[1,2-a]pyridin-3-yl)ethynyl)-N-(4-((3-(dimethylamino)pyrrolidin-1-yl)methyl)-3-(trifluoromethyl)phenyl)-2-fluoro-4-methylbenzamide]",GI50,T315I-TCCS cells,100 nM
same,GI50,KOPM28 cells,< 10 nM
same,GI50,TCCS cells,< 10 nM
same,GI50,T315I-KOPM28 cells,100 nM
same,GI50,Parental (Ba/F3),0.5 to 5 µM
same,GI50,T315I-Bcr-Abl (Ba/F3),< 50 nM
